The test system of one experiment is Rheumatoid arthritis FLS. The experiment can be described thus: 3HdTr nuclear fragmentation assay. Format: cell-based, human. Particulars: FIG. 8; cytokines or antibodies 8 h, act D 4 h. As for the experimental part: Rheumatoid arthritis FLS were seeded at 10^4 cells/well in a 96-well microtiter plate. The cells were cultured at 37° C. and 5% CO2 for 2 days. On the third day, 10 uCi/ml/well of 3HdTR was added to each well and incubated overnight. The cells were then treated with different concentrations of cytokines or antibodies for 8 h or actinomycin D (act D) for 4 h and then lysed by 2 rounds of freeze-thaw cycles. Lysed cells and media were aspirated onto fiber glass filters using a cell harvester. The filters were washed to remove unincorporated nucleotides and counted in a liquid scintillation counter. All points were done in triplicates. Percent specific fragmentation was calculated as follows: (S-E)×100/S, where E=retained cpms on the filter in the presence of cytokine and S=retained cpms on the filter in the medium control (Matzinger, P., J. Immunological Methods 145:185-92, 1991).
(§1) The presence of CD68-negative apoptotic cells in the synovial lining prompted an analysis of the regulation of FLS apoptosis in vitro. […] Osteoarthritis and rheumatoid arthritis-derived FLS were equally susceptible to induction of DNA strand breaks.

Experiment [1] concerns fibroblast-like synoviocytes (FLS). The experiment can be described thus: ISEL assay of apoptosis (DNA fragmentation) in cultured fibroblast-like synoviocytes. Format: cell-based, human. Conditions: for % apoptotic cells Without IFN-gamma (100 U/ml) / % apoptotic cells With IFN-gamma: FLS incubated with mediator for 16 h, n = 3, ISEL assay; for % apoptotic cells Without IFN-gamma (100 U/ml): 'Without IFN-gamma (100 U/ml)' [sic]; for % apoptotic cells With IFN-gamma: concentrations: IL-1 1 ng/ml, TNF-alpha 100 ng/ml, act D 0.5 ug/ml, anti-fas 80 ng/ml; for DNA fragmentation in FLS (ISEL assay), in words: cultured FLS in chamber slides, agent alone; for effect of combination on FLS apoptosis, in words: in combination with other apoptosis-inducing factors. As for the experimental part:
Fragmented DNA was detected in cell nuclei using a modification of previously described methods (Wood et a., Neuron., 11:621-32, 1993 and Wijsman et al., J. Histochem. Cytochem. 41:7-12, 1993). Frozen section of synovial tissue (5-6 microns thick) were placed onto poly-L-lysine coated slides and air dried for at least 2 hours. The tissue sections were then fixed with EtOH/Acetic acid 3:1 for 10 min at room temperature and washed with buffer 1 (see below) for 5 min. The slides were then air dried 1 or at least 2 h. 10-15 ul of DNA polymerase mix were added to each section and incubated at room temperature for 1 h. The sections were washed with buffer 1 (see below) for 5 min at room temperature followed by a wash in buffer 2 for 5 min.
Alkaline phosphatase conjugated anti-digoxigenin antibody was diluted to 1:500 in buffer 2 and 15-20 ul was applied to each specimen. The slides were incubated at 37° C. for 2 hrs in a humidified chamber and then washed with buffer 1 for 5 min. They were then equilibrated with buffer 3 for 5 min and the color reagent (NBT+BCIP) was added to the specimens. After about 30 min the slides were washed with distilled water, counterstained with eosin or methyl green and dehydrated with graded alcohol washes. The developing reagent gave a dark purple color for positive signals. Buffers: 10× DNA polymerase buffer=0.5M Tris.Cl pH7.5, 0.1M MgCl2, 1 mM DTT; 10× nucleotide mix=1 mM each of dATP, dCTP and dGTP, 0.4 mM dTTP; DNA polymerase mix=10× DNA pol buffer (2 ul), […] nucleotide mix (2 ul); 100 uM dig-11-dUTP (0.5 ul), Klenow polymerase (2 ul (2 U)), Water (13.5 ul); Buffer 1=100 mM Tris.Cl pH7.5, 150 mM NaCl; Buffer 2=0.5% Blocking agent in buffer 1, Buffer 3=100 […]. Quantification of ISEL assay. A semiquantitative scale was used to estimate the degree of ISEL staining in tissue sections that had been counterstained with methyl green to distinguish ISEL-positive and -negative cells. Four areas were reviewed by a blinded investigator: the synovial intimal lining, the sublining, blood vessels, and lymphoid aggregates. The extent of staining in the area was estimated and scored as using a previously established semiquantitative scale.
Synovial cells were isolated by enzymatic dispersion of synovial tissues as previously described (Alvaro-Gracia, et al., supra). Briefly, the tissues were minced and incubated with 1 mg/ml collagenase in serum-free DMEM (Gibco, Grand Island, N.Y.) for 2 h at 37° C., filtered through a nylon mesh, extensively washed, and cultured in DMEM supplemented with 10% fetal calf serum (FCS) (Gibco, endotoxin content <0.006 ng/ml), penicillin, streptomycin, and L-glutamine in a humidified 5% Co2 atmosphere. After overnight culture, non-adherent cells were removed and adherent cells were cultivated in DMEM plus 10% FCS.
At confluence, cells were trypsinized, split at a 1:3 ratio, and recultured in medium. Synoviocytes were used from passages 3 through 9 in these experiments, during which time they were a homogeneous population of fibroblast-like synoviocytes (FLS)(<1% CD11b, <1% phagocytic, and <1% Fc-gamma RII receptor positive).
as §1

A further experiment has as its system p53 in RA FLS. Conditions: 8-9 hr after stimulating with H2O2 for 100 min; n=3; medium alone 10.7±2.4%. As for the experimental part: (§2) The intracellular location of p53 protein is an important determinant of its functional capabilities. It is known that p53 can reside in the cytoplasm (generally bound to hsc70) but is transported to the nucleus after DNA damage or proliferative signals. […] Immunohistochemistry was then performed on cultured RA FLS to determine the subcellular localization of p53.

In experiment [2] the test system is p53 in dermal fibroblasts. Conditions: after exposure to H2O2; before 5±11%. As for the experimental part:
as §2

In the next experiment the test system is Fas on FLS. The experiment can be described thus: Surface Fas expression on FLS by flow cytometry (FACS). Format: cell-based, human. Particulars: IL-1beta 1 ng/ml or TNF-alpha 100 ng/ml for 16 to 24 hours; pooled RA and OA FLS. As for the experimental part: FLS (1-2×105) were cultured in 6-well plastic dishes (Costar, Cambridge, Mass.) in DMEM-10% FCS. Cells were harvested with 5 mM EDTA at 4° C. and stained with anti-fas or control antibody (Kamiya Biomedical Co., Thousand Oaks, Calif.) as previously described (Alvaro-Gracia, et al., supra). Phycoerythrin conjugated Fab2 anti-mouse IgG (Tago Inc. Burlingame, Calif.) was used as a secondary antibody. An isotype matched MAb was used as negative control. Induction of Fas expression by cytokines was calculated from the mean fluorescence channels (MFC) as follows: relative MFC=(MF(Ccytokine-MFClgG)/(MFCmedium-MFClgG). A cell was defined a positive if its MFC was greater than 98% of cells stained with the control antibody. Statistical analysis. Data were analyzed using the paired Student t test and are presented as mean+SEM.
Since anti-fas antibody induced DNA fragmentation in FLS, fas expression was determined on these cells using flow cytometry. Many FLS constitutively expressed Fas protein on the cell surface (see FIG. 9 for a representative experiment (n=7; 4 rheumatoid arthritis and 3 osteoarthritis)). There were no significant differences between osteoarthritis and rheumatoid arthritis FLS with regard to the level of surface Fas expression on resting synoviocytes. […]

Another experiment concerns mouse air pouch tissue. The experiment can be described thus: Mouse air pouch model of inflammation with TUNEL staining. The class given is in vivo. Conditions: 3 ml of 1% carrageenan into pouch, two days after injection. As for the experimental part: In this standard model, mice were lightly anesthetized with halothane and 3 ml of sterile filtered air was injected subcutaneously into the back, forming a pocket. This procedure was repeated twice over the next 5 days to form a mature pouch. Subsequently, 3 ml of 1% carrageenan was injected into the pouches. Carrageenan is a highly inflammatory natural substance that, when injected into body cavities, induces leukocyte recruitment, cytokine gene expression, and release of a variety of small molecule mediators. Two days after carrageenan injection, the mice were sacrificed and the pouches were removed. The excised pouches were fixed in formaldehyde and histologic sections were prepared. The sections were subsequently stained using the TUNEL technique (Wood, et al., Neuron, 11:621, 1993) to identify cells with fragmented DNA that were undergoing apoptosis.

Numbered stars: 1 amine (or outer) side, 2 acyl side, 3 side chain; on linkers, the order of the positions; unused ones are H or OH. Bridge positions count the residues as written; N and C are the ends. Square brackets hold non-standard residues; d marks the D form. Peptide text beside a SMILES is read from it. I, II: the chains in the order shown. Actinocin(9to1) = Cc1c2oc3c(C)ccc(C(=O)[*:1])c3nc-2c(C(=O)[*:2])c(N)c1=O; NMeV = CN[C@H](C(=O)O)C(C)C; Sar = CNCC(=O)O

Take `Cc1c2oc3c(C)ccc(C(=O)N[C@@H]4C(=O)N[C@H](C(C)C)C(=O)N5CCC[C@H]5C(=O)N(C)CC(=O)N(C)[C@@H](C(C)C)C(=O)O[C@@H]4C)c3nc-2c(C(=O)N[C@@H]2C(=O)N[C@H](C(C)C)C(=O)N3CCC[C@H]3C(=O)N(C)CC(=O)N(C)[C@@H](C(C)C)C(=O)O[C@@H]2C)c(N)c1=O` [actinomycin D, reference compound] (I: T[dV]P[Sar][NMeV] / II: T[dV]P[Sar][NMeV]; ester I:1-I:C, II:1-II:C; linker I:N-II:N via Actinocin(9to1)): the “DNA fragmentation in cultured FLS (3HdTr nuclear fragmentation), in words” value (from here on “DNA fragmentation in cultured FLS”) in the experiment with Rheumatoid arthritis FLS is listed as “caused DNA fragmentation”. Further, in experiment [1], the “% apoptotic cells Without IFN-gamma (100 U/ml)” value was determined as 6 ± 3 %; the “% apoptotic cells With IFN-gamma” value is given as 37 ± 5%; the “DNA fragmentation in FLS (ISEL assay), in words” value (from here on “DNA fragmentation in FLS”) is “caused significant DNA fragmentation”.

For the molecule `OO` [hydrogen peroxide], the “% of FLS with prominent nuclear p53 staining” value in the experiment with p53 in RA FLS was found to be 70.7±12.8%. In experiment [2], the “% of dermal fibroblasts with nuclear p53 staining” value was determined as 75±17%.

“IL-1: Recombinant hIL-1 beta, cytokine purchased from Genzyme”: the “surface Fas expression on FLS, in words” value in the experiment with Fas on FLS was “slight increase, the difference did not reach statistical significance”. In the experiment on Rheumatoid arthritis FLS, the “DNA fragmentation in cultured FLS” value is “caused DNA fragmentation”. Moreover, in experiment [1], the “% apoptotic cells Without IFN-gamma (100 U/ml)” value was found to be 0 ± 2 %; the “% apoptotic cells With IFN-gamma” value is recorded as 50 ± 2%; the “DNA fragmentation in FLS” value is reported as “caused significant DNA fragmentation”.

Regarding TNF-alpha, the “surface Fas expression on FLS, in words” value in the experiment with Fas on FLS is listed as “significantly increased surface Fas expression”. Further, in the experiment on Rheumatoid arthritis FLS, the “DNA fragmentation in cultured FLS” value is listed as “caused DNA fragmentation”. Further, in experiment [1], the “% apoptotic cells Without IFN-gamma (100 U/ml)” value was found to be 3 ± 2 %; the “% apoptotic cells With IFN-gamma” value was found to be 35 ± 1%; the “DNA fragmentation in FLS” value is “caused significant DNA fragmentation”; the “effect of combination on FLS apoptosis, in words” value was “additive with actinomycin D”.

Turning to carrageenan, in the experiment on mouse air pouch tissue, the “TUNEL-positive cells in air pouch tissue, in words” value is “large foci of TUNEL-positive cells were present” and the “inflammatory infiltration of the air pouch, in words” value is reported as “an inflammatory exudate was present”.

B1: IFN-gamma: recombinant human IFN-gamma, cytokine purchased from Genzyme (protein, UniProt P01579 24-161, looked up)
Interferon gamma: QDPYVKEAENLKKYFNAGHSDVADNGTLFLGILKNWKEESDRKIMQSQIVSFYFKLFKNFKDDQSIQKSVETIKEDMNVKFFNSNKKKRDDFEKLTNYSVTDLNVQRKAIHELIQVMAELSPAAKTGKRKRSQMLFRG
Consider B1, for which, in experiment [1], the “% apoptotic cells Without IFN-gamma (100 U/ml)” value amounted to 6 ± 2%; the “DNA fragmentation in FLS” value is recorded as “minimal effect”; the “effect of combination on FLS apoptosis, in words” value is on record as “significantly reduced FLS apoptosis”.

The values are drawn from patent US6747013B2, “Therapy for cellular accumulation in chronic inflammatory diseases” (The Regents of the University of California, priority 1995, dated 2004).
